Assay results as given in ChEMBL document CHEMBL5291721, “A preclinical secondary pharmacology resource illuminates target-adverse drug reaction associations of marketed drugs” (Nat Commun, 2023).

What was measured:
Acetylcholinesterase = Acetylcholinesterase (Homo sapiens, UniProt P22303); type: functional
[1] = target: Sodium-dependent serotonin transporter (Homo sapiens, UniProt P31645)
[2] = target: T1, Alpha-1A adrenergic receptor (Homo sapiens, UniProt P35348); type: functional, cell-based
T1 sequence (P35348 whole entry): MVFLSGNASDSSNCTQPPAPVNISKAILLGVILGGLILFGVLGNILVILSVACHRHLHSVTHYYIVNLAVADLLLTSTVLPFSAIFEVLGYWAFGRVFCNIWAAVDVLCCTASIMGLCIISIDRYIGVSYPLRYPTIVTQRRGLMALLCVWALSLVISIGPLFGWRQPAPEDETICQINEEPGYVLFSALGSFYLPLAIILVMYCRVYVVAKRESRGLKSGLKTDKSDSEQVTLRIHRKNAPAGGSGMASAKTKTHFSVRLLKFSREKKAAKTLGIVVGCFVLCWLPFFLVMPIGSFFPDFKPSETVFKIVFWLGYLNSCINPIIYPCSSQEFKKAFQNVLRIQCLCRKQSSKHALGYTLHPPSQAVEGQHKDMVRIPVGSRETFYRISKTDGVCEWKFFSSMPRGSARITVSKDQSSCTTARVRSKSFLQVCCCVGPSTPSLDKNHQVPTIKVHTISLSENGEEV

[3] = target: T2, Muscarinic acetylcholine receptor M1 (Homo sapiens, UniProt P11229); type: functional, cell-based
T2 sequence (P11229 whole entry): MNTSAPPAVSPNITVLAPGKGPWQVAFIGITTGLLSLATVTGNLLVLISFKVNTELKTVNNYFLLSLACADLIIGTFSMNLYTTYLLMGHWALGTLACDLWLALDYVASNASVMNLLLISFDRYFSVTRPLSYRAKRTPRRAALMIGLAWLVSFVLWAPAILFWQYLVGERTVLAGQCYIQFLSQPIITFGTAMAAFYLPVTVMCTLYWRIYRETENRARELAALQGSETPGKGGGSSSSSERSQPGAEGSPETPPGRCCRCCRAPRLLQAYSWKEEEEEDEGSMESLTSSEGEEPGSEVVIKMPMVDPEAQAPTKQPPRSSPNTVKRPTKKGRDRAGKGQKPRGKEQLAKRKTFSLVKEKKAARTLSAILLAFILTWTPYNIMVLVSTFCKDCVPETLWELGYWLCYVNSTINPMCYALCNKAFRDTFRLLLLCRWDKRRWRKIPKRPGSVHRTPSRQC

D(3) dopamine receptor = D(3) dopamine receptor (Homo sapiens, UniProt P35462)
[4] = target: cGMP-inhibited 3',5'-cyclic phosphodiesterase 3A (Homo sapiens, UniProt Q14432); type: functional
Androgen receptor = target: T3, Androgen receptor (Homo sapiens, UniProt P10275)
T3 sequence (P10275 whole entry): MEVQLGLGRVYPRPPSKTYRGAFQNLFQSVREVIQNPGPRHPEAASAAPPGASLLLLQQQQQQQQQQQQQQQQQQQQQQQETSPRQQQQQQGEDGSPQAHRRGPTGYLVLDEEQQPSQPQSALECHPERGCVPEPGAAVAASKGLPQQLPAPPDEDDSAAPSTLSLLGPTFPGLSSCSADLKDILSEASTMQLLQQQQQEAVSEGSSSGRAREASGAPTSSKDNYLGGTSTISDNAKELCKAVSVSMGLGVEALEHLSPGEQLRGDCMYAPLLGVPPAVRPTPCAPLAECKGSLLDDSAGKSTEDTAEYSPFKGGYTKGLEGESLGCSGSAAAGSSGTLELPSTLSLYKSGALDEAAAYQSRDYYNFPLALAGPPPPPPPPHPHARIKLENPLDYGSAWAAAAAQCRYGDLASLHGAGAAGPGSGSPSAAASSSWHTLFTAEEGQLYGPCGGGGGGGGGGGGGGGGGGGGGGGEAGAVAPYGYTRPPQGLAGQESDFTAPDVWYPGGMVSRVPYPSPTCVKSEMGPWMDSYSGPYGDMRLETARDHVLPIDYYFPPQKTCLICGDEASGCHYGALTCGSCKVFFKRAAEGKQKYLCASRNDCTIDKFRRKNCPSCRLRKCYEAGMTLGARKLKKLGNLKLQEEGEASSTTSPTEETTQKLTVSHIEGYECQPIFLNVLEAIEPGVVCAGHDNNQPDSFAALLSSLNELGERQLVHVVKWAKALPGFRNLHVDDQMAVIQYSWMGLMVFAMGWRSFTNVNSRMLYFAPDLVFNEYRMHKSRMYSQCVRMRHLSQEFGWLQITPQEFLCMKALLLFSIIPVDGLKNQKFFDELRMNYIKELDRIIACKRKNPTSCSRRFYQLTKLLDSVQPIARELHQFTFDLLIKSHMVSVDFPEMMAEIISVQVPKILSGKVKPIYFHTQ

D(1A) dopamine receptor = D(1A) dopamine receptor (Homo sapiens, UniProt P21728)
[5] = target: Gamma-aminobutyric acid receptor subunit alpha-1 (Rattus norvegicus, UniProt P62813)
[6] = target: Voltage-gated inwardly rectifying potassium channel KCNH2 (Homo sapiens, UniProt Q12809); type: functional; details: read-out: AC50
[7] = target: T4, Type-1 angiotensin II receptor (Homo sapiens, UniProt P30556)
T4 sequence (P30556 whole entry): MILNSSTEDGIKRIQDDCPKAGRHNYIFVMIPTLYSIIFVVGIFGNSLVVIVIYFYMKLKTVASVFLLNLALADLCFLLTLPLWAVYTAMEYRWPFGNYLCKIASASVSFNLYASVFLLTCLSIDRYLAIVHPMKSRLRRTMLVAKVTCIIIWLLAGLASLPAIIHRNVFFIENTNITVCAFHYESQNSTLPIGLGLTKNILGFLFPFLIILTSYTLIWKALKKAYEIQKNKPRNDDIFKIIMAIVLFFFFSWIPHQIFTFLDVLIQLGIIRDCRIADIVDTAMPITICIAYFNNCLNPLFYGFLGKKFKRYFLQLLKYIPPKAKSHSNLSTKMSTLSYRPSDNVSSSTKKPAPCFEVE

[8] = target: Kappa-type opioid receptor (Homo sapiens, UniProt P41145)
Note: assay procedure not described here.

Sequence of Sodium-dependent serotonin transporter (P31645 whole entry): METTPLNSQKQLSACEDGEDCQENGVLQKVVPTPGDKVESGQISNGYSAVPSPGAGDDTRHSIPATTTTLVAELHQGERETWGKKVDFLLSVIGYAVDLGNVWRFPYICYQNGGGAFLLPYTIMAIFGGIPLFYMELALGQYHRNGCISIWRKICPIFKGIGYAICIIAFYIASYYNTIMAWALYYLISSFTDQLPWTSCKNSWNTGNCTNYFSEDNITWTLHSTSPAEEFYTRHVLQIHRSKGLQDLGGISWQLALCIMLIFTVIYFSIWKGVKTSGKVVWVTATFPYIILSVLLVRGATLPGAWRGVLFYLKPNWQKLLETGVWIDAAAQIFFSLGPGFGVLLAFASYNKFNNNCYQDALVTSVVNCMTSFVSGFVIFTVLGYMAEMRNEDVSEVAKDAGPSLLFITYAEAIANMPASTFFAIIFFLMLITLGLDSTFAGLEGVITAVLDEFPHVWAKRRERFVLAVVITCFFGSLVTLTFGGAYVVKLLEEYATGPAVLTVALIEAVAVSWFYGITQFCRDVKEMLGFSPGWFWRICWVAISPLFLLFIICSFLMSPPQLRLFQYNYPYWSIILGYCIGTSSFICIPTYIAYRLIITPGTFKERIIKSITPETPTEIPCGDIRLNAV
Sequence of Acetylcholinesterase (P22303 whole entry): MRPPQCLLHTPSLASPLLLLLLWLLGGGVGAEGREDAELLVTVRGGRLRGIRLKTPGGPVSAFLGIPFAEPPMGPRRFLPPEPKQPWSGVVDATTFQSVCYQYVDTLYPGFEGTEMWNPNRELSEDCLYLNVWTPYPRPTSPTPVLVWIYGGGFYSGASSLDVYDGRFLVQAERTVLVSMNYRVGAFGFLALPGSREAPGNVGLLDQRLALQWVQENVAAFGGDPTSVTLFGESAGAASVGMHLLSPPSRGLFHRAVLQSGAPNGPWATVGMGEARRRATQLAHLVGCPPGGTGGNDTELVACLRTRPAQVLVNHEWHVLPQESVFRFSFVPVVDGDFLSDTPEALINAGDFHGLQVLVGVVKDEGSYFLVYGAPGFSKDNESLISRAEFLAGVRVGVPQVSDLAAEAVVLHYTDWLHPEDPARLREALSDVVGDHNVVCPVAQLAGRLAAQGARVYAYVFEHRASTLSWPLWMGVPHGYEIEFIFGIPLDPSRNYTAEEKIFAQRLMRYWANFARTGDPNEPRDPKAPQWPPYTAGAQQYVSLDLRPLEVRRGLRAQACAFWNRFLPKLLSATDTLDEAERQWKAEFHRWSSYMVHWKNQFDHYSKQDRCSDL
Sequence of Voltage-gated inwardly rectifying potassium channel KCNH2 (Q12809 whole entry): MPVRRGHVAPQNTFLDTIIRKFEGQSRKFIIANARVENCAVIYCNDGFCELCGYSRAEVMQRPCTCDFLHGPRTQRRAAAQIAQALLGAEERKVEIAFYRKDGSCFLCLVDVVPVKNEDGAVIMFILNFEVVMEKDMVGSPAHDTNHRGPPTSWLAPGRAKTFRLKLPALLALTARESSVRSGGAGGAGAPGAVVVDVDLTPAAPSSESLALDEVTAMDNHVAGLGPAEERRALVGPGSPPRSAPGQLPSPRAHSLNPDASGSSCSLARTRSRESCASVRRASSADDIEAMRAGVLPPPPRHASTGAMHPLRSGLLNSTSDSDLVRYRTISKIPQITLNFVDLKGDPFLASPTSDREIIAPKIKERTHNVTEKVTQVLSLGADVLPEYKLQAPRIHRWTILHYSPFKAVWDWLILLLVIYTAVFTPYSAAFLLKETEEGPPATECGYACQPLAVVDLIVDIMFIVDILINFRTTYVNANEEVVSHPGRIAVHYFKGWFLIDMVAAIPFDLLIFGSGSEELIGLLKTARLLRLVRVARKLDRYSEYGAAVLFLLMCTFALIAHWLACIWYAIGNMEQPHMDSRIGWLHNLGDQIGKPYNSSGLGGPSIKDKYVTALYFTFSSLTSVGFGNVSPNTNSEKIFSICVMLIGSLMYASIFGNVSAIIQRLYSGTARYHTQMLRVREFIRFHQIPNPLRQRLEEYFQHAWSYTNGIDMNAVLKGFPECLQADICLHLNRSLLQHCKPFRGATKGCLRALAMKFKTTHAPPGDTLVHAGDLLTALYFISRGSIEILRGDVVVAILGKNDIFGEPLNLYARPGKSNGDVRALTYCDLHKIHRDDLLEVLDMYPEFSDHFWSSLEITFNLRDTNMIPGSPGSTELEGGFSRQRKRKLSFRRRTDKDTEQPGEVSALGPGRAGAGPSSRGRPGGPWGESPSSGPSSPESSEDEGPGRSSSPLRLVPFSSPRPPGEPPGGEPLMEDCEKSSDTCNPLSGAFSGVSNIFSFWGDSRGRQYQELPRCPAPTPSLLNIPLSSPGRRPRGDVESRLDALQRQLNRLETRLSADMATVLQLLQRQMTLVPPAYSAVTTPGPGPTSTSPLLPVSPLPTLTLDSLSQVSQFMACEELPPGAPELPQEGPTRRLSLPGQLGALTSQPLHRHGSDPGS
Sequence of Gamma-aminobutyric acid receptor subunit alpha-1 (P62813 whole entry): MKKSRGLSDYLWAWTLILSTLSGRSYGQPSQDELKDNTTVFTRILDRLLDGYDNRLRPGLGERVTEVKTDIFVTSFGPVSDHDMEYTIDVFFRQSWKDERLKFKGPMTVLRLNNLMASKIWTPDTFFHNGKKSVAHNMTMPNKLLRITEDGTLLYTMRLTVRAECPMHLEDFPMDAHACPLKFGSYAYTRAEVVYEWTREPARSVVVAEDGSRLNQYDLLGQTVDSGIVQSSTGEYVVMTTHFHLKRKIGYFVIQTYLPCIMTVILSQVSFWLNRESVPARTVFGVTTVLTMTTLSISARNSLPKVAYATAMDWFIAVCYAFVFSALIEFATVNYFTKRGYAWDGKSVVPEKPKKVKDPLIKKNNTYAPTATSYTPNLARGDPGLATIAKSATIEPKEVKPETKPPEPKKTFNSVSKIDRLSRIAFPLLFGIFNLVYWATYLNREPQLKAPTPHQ
Sequence of D(3) dopamine receptor (P35462 whole entry): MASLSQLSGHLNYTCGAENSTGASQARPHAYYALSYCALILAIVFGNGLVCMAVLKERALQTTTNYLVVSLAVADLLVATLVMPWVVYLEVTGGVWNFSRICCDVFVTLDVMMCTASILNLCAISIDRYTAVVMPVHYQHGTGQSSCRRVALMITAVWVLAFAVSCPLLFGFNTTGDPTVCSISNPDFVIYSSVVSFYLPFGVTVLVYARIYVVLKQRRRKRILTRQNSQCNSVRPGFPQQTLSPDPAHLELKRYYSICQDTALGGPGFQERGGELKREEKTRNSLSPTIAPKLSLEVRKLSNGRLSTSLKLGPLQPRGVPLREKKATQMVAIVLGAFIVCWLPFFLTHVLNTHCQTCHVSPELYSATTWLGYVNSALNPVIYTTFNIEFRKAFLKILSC
Sequence of cGMP-inhibited 3',5'-cyclic phosphodiesterase 3A (Q14432 whole entry): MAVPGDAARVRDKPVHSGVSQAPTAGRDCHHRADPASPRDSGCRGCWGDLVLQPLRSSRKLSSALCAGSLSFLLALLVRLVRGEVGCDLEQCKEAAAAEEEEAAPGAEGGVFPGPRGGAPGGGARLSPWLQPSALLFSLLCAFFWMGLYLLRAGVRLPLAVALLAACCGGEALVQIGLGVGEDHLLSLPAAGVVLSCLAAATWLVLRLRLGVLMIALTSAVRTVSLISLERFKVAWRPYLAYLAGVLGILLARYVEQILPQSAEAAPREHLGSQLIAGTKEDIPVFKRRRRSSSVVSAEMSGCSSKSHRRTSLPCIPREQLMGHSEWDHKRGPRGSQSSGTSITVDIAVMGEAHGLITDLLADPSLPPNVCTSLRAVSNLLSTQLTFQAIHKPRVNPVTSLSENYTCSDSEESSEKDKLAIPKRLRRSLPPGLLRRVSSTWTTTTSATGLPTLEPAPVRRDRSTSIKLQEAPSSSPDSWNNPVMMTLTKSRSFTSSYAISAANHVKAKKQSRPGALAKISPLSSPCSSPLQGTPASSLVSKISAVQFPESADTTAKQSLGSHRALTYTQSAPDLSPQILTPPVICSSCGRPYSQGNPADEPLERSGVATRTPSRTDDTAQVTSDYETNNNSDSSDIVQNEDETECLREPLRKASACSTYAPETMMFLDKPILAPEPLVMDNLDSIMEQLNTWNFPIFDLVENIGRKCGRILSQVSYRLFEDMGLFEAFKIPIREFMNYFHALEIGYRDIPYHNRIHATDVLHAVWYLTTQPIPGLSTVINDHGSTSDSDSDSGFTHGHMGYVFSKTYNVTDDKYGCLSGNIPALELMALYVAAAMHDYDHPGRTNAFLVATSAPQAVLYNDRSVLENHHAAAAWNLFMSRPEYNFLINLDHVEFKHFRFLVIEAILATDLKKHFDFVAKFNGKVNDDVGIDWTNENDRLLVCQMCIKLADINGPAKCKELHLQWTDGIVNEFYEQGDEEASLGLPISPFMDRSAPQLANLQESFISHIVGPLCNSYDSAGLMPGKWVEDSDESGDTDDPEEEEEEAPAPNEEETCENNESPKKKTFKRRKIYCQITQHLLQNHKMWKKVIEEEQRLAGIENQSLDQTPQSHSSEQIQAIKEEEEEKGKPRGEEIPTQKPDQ
Sequence of D(1A) dopamine receptor (P21728 whole entry): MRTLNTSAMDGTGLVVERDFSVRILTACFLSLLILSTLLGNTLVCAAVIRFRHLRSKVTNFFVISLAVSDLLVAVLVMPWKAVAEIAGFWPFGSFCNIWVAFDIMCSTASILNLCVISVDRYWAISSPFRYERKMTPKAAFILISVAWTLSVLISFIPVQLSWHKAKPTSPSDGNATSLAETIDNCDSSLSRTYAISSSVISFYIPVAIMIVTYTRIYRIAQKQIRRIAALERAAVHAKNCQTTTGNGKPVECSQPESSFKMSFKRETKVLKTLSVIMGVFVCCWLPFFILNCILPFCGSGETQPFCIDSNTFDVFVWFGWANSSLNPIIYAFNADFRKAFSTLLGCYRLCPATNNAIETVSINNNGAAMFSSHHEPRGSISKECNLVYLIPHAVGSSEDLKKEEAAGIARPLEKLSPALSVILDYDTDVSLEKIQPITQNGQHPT

SMILES	AC50 (Acetylcholinesterase)	AC50 [1]	AC50 [2]	AC50 [3]	AC50 (D(3) dopamine receptor)	AC50 [4]	AC50 (Androgen receptor)	AC50 (D(1A) dopamine receptor)	AC50 [5]	AC50 [6]	AC50 [7]	AC50 [8]
CC(CNC(=O)c1ccccc1)C(=O)OCC(=O)[C@@]12OC(C)(C)O[C@@H]1C[C@H]1[C@@H]3CCC4=CC(=O)C=C[C@]4(C)[C@@]3(F)[C@@H](O)C[C@@]12C (stereo partly specified) [TRIAMCINOLONE BENETONIDE]	> 30 µM	> 30 µM	> 30 µM	> 30 µM	> 30 µM	> 30 µM	> 30 µM	> 30 µM	> 30 µM	> 30 µM		
CC(=O)OCC1=C(C(=O)O)N2C(=O)[C@@H](NC(=O)[C@H](N)c3ccccc3)[C@H]2SC1 [CEPHALOGLYCIN]	> 30 µM	> 30 µM	> 30 µM	> 30 µM	> 30 µM	> 30 µM	> 30 µM	> 30 µM	> 30 µM	> 30 µM		
O=C(Nc1ccc(Cl)cc1)Nc1ccc(Cl)c(Cl)c1 [TRICLOCARBAN]	> 30 µM	> 30 µM	> 30 µM	0.702 µM	> 30 µM	11.6 µM	> 30 µM	> 30 µM	> 30 µM	> 30 µM		
OC(CCN1CCCCC1)(c1ccccc1)c1ccccc1 [PRIDINOL]	> 30 µM	> 30 µM	> 30 µM	0.0824 µM		> 30 µM	> 30 µM	> 30 µM	> 30 µM	8.8 µM		
Nc1ccc(S(=O)(=O)c2cnc(N)s2)cc1 [THIAZOLSULFONE]	> 30 µM	> 30 µM	> 30 µM	> 30 µM	> 30 µM	> 30 µM	> 30 µM	> 30 µM	> 30 µM	> 30 µM		
CC[C@H]1CN2CC[C@H]1C[C@H]2[C@H](O)c1ccnc2ccc(OC)cc12 [HYDROQUININE]	> 30 µM	3.95 µM	> 30 µM	> 30 µM	> 30 µM	> 30 µM	> 30 µM	> 30 µM	> 30 µM	10 µM		
CC[C@]1(O)C[C@H]2CN(CCc3c([nH]c4ccccc34)[C@@](C(=O)OC)(c3cc4c(cc3OC)N(C=O)[C@H]3[C@@](O)(C(=O)OC)[C@H](OC(C)=O)[C@]5(CC)C=CCN6CC[C@]43[C@@H]65)C2)C1 [VINCRISTINE]	> 30 µM		> 30 µM		> 30 µM	> 30 µM	> 30 µM	> 30 µM	> 30 µM			
CC(C)(C)CC(C)(C)c1ccc(O)c(Cc2ccc(Cl)cc2Cl)c1 [CLOFOCTOL]	> 30 µM	5.43 µM	> 30 µM	> 10 µM	1.48 µM	5.81 µM	14.9 µM	29.7 µM	> 30 µM	11 µM		
CC(=O)OCC(=O)[C@@]1(O)CC[C@H]2[C@@H]3CCC4=CC(=O)C=C[C@]4(C)[C@@]3(Cl)[C@@H](Cl)C[C@@]21C [DICHLORISONE ACETATE]	> 30 µM	> 30 µM	> 30 µM	> 30 µM	> 30 µM	> 30 µM	0.128 µM	> 30 µM	> 30 µM	> 30 µM		
CCCCS(=O)(=O)N[C@@H](Cc1ccc(OCCCCC2CCNCC2)cc1)C(=O)O [TIROFIBAN]	> 30 µM	9.96 µM	> 30 µM	> 10 µM	> 30 µM	> 30 µM	> 30 µM	> 30 µM	> 30 µM	> 30 µM		
OC(c1ccccc1)(c1ccccc1)C12CC[N+](CCOCc3ccccc3)(CC1)CC2	> 30 µM	0.302 µM	> 30 µM	0.0053 µM	> 30 µM	> 30 µM	> 30 µM	> 30 µM	> 30 µM			
CCOc1ccc(Cc2cc([C@@H]3O[C@H](CO)[C@@H](O)[C@H](O)[C@H]3O)ccc2Cl)cc1 [DAPAGLIFLOZIN]	> 30 µM		> 30 µM	> 30 µM	> 30 µM	> 30 µM	> 30 µM	> 30 µM	> 30 µM	> 30 µM	> 30 µM	> 10 µM
O=C(Oc1ccc2c(c1)CCCN2C(=O)C(Cl)Cl)c1ccco1 [QUINFAMIDE]	> 30 µM	> 30 µM	> 30 µM	15.4 µM	> 30 µM	> 30 µM	> 30 µM	> 30 µM	> 30 µM	> 30 µM		
N=C1CCCN1Cc1[nH]c(=O)[nH]c(=O)c1Cl	> 30 µM	> 30 µM	> 30 µM	> 30 µM		> 30 µM	> 30 µM	> 30 µM	> 30 µM	> 30 µM		
O=C(O)c1ccccc1C(=O)Nc1ccc(S(=O)(=O)Nc2nccs2)cc1 [PHTHALYLSULFATHIAZOLE]	> 30 µM	> 30 µM	> 30 µM	> 30 µM	> 30 µM	> 30 µM	> 30 µM	> 30 µM	> 30 µM	> 30 µM		
CC1=C(/C=C/C(C)=C/C=C/C(C)=C/C=C/C=C(C)/C=C/C=C(C)/C=C/C2=C(C)CCCC2(C)C)C(C)(C)CCC1 [BETA CAROTENE]	> 30 µM	> 30 µM	> 30 µM	> 30 µM	20.8 µM	> 30 µM	> 30 µM	> 30 µM	> 30 µM			
Nc1nc2nc[nH]c2c(=S)[nH]1 [THIOGUANINE]	> 30 µM		> 30 µM		> 30 µM	> 30 µM	> 30 µM	> 30 µM	> 30 µM			
